From article PMC8429728, “TNK1 is a ubiquitin-binding and 14-3-3-regulated kinase that can be targeted to block tumor growth” (Nature Communications, 2021)
Read-outs that look alike come from different tables or passages of the source.

How the values were obtained:
Experiment in all cases: biochemical
Design in all cases: Reaction Biology 371-kinase panel at Km ATP, per cent enzyme activity relative to DMSO, single dose in duplicate
Details in all cases: duplicate measurements, Km ATP
CDK9/CYCLIN K = CDK9/CYCLIN K (Homo sapiens, UniProt P50750)
Method in brief: (§1)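 First, kinases from a 371-member panel were exposed in vitro to 300 nM inhibitor. Next, % enzyme activity versus DMSO was computed. Finally, IC50s were derived by sigmoidal dose-response fitting with variable slope and a zero bottom constraint.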

MLK3/MAP3K11 = MLK3/MAP3K11 (Homo sapiens, UniProt Q16584)
Method in brief: as §1

PKMYT1 = biological target: T1, PKMYT1 (Homo sapiens, UniProt Q99640)
T1 sequence (Q99640 1-499): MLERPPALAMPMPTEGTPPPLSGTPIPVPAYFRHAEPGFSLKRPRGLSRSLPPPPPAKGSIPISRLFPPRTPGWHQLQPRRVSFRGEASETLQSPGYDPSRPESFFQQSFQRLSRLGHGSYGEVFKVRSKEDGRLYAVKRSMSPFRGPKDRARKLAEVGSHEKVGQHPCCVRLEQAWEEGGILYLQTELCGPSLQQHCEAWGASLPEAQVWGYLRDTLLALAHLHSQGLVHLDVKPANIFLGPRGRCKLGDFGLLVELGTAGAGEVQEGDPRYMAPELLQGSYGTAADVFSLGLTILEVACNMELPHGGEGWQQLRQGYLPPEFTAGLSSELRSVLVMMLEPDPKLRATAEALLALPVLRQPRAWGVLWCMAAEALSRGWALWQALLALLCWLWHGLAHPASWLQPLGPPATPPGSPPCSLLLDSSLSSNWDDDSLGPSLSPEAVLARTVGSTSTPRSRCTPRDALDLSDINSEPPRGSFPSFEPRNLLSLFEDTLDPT
Method in brief: as §1

PKCtheta = biological target: T2, PKCtheta (Homo sapiens, UniProt Q04759)
T2 construct: gene PRKCQ
Method in brief: as §1

NEK6 = NEK6 (Homo sapiens, UniProt Q9HC98)
Method in brief: as §1

CDK9/cyclin T2 = CDK9/cyclin T2 (Homo sapiens, UniProt P50750)
Method in brief: as §1

MARK2/PAR-1Ba = MARK2/PAR-1Ba (Homo sapiens, UniProt Q7KZI7)
Method in brief: as §1

ERN1/IRE1 = ERN1/IRE1 (Homo sapiens, UniProt O75460)
Method in brief: as §1

GRK6 = GRK6 (Homo sapiens, UniProt P43250)
Method in brief: as §1

TSSK3/STK22C = TSSK3/STK22C (Homo sapiens, UniProt Q96PN8)
Method in brief: as §1

TLK2 = TLK2 (Homo sapiens, UniProt Q86UE8)
Method in brief: as §1

ERN2/IRE2 = ERN2/IRE2 (Homo sapiens, UniProt Q76MJ5)
Method in brief: as §1

STK32C/YANK3 = STK32C/YANK3 (Homo sapiens, UniProt Q86UX6)
Method in brief: as §1

PAK4 = PAK4 (Homo sapiens, UniProt O96013)
Method in brief: as §1

NEK2 = NEK2 (Homo sapiens, UniProt P51955)
Method in brief: as §1

WEE1 = WEE1 (Homo sapiens, UniProt P30291)
Method in brief: as §1

[1] = read-out: % Enzyme Activity (relative to DMSO controls) / TP-0005801 (0.3µM) / Data 1
[2] = read-out: % Enzyme Activity (relative to DMSO controls) / TP-0005801 (0.3µM) / Data 2

Sequence of NEK2 (P51955 whole entry): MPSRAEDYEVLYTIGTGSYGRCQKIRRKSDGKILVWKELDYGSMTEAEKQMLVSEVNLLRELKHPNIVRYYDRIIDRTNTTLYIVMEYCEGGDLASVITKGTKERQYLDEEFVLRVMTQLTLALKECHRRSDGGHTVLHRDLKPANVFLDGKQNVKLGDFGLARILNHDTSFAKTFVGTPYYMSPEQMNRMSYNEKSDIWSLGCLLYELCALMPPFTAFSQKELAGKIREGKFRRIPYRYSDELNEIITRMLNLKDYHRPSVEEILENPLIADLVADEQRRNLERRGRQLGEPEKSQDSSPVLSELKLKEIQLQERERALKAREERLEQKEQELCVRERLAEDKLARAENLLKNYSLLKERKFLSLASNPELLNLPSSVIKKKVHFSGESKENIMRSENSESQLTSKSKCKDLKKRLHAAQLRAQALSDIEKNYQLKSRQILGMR
Sequence of TSSK3/STK22C (Q96PN8 whole entry): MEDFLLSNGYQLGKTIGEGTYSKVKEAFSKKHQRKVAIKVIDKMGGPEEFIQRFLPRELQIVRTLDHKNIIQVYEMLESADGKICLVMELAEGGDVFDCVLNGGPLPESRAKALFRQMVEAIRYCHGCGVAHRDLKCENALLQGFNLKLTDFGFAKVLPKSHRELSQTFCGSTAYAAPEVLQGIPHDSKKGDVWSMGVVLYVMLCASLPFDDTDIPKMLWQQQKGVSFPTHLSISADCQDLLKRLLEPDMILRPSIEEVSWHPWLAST
Sequence of MARK2/PAR-1Ba (Q7KZI7 whole entry): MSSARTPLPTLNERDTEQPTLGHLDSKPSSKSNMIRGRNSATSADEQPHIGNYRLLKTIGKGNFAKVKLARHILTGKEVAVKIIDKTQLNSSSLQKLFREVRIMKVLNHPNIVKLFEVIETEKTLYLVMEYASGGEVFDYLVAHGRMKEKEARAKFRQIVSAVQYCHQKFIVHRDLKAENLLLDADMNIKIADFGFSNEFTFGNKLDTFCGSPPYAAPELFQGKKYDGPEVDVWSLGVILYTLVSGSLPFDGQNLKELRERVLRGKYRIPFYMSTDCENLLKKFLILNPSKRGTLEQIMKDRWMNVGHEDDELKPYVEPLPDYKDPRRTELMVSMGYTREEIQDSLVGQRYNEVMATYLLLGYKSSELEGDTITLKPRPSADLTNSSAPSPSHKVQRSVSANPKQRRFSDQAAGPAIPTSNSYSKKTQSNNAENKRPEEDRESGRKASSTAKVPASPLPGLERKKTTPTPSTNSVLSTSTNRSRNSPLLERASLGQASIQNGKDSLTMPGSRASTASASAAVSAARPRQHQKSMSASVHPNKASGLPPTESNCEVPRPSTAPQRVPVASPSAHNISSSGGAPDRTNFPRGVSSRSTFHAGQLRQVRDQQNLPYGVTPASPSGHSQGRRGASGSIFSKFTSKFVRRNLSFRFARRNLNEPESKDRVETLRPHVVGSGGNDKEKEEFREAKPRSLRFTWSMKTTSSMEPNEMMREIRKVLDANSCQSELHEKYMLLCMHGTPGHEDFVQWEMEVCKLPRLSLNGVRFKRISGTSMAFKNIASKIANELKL
Sequence of GRK6 (P43250 whole entry): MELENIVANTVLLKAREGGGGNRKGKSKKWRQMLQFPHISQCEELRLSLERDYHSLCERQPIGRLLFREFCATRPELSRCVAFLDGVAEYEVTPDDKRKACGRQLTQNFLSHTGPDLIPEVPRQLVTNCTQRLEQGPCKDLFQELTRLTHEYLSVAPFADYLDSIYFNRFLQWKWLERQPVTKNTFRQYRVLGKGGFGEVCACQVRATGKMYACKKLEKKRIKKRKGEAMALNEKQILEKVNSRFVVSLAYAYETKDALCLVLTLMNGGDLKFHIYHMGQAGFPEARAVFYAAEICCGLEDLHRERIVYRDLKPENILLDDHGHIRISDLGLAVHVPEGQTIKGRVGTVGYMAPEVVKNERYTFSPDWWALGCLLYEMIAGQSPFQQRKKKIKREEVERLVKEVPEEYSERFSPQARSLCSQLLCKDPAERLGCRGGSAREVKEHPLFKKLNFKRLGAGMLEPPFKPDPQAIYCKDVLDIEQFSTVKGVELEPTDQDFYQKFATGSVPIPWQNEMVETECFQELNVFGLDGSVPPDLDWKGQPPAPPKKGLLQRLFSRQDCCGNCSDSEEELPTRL
Sequence of CDK9/CYCLIN K (P50750 whole entry): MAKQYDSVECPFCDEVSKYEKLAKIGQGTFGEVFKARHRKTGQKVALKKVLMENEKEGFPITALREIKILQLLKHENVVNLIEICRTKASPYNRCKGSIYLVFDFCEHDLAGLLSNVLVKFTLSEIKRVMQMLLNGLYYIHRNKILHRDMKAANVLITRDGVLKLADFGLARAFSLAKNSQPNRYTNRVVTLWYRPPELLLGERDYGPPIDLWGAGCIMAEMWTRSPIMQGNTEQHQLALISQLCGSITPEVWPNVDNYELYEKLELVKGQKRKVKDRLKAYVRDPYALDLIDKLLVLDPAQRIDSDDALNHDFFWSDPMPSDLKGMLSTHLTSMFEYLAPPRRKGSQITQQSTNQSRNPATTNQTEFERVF
Sequence of CDK9/CYCLIN K (O75909 whole entry partner): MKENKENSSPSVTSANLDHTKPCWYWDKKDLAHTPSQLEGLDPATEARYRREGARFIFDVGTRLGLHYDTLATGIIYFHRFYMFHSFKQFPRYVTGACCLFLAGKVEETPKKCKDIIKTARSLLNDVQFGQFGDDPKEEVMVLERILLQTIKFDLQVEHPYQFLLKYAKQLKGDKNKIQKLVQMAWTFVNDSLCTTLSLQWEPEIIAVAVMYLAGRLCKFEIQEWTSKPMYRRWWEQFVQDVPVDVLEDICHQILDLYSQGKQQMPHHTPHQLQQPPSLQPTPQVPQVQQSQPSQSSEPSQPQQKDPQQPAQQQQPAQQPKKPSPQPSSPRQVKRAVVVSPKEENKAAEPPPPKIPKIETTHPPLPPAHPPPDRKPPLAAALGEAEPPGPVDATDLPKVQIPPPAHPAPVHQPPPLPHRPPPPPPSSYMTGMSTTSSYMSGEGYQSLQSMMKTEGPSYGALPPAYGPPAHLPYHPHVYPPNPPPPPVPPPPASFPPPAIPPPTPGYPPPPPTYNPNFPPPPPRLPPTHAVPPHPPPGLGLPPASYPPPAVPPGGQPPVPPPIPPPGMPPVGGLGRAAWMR
Sequence of CDK9/cyclin T2 (P50750 whole entry): as the sequence (P50750 whole entry) above
Sequence of CDK9/cyclin T2 (O60583 whole entry partner): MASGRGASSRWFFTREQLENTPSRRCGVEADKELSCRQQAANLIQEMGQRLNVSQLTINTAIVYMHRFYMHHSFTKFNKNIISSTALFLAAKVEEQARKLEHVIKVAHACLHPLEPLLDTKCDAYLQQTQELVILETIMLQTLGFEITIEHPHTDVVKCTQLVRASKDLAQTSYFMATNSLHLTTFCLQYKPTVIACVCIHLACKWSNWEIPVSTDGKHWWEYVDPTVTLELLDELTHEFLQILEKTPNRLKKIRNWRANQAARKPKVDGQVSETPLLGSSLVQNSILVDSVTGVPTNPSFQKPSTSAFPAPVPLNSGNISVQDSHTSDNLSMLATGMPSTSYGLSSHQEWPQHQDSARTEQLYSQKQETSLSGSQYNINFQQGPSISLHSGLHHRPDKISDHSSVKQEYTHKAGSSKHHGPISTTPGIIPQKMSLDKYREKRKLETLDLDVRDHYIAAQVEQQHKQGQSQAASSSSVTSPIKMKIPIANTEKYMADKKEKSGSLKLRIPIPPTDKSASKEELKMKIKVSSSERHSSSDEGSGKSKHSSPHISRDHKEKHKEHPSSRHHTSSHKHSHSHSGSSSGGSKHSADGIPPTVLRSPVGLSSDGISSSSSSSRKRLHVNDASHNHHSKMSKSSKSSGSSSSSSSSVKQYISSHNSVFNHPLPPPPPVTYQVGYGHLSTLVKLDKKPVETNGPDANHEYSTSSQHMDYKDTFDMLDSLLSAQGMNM
Sequence of TLK2 (Q86UE8 whole entry): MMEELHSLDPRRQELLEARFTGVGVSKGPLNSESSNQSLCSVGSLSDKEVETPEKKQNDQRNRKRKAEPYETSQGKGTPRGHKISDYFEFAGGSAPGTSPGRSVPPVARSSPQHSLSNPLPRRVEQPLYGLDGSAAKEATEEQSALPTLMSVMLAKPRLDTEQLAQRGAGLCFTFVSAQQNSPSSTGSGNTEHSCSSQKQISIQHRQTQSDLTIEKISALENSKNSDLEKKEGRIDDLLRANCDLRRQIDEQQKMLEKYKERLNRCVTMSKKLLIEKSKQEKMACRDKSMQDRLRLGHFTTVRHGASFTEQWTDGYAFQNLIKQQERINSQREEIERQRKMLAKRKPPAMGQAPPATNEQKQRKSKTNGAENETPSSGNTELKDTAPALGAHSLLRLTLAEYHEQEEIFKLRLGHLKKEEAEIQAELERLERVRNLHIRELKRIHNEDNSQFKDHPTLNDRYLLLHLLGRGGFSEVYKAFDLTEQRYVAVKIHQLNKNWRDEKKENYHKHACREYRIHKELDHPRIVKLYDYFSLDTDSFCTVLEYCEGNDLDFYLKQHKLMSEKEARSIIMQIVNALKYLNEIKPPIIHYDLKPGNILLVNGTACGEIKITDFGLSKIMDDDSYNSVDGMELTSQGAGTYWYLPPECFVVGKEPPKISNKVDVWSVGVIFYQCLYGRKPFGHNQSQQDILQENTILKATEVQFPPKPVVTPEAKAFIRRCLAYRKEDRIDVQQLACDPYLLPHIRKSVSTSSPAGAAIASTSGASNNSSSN
Sequence of NEK6 (Q9HC98 whole entry): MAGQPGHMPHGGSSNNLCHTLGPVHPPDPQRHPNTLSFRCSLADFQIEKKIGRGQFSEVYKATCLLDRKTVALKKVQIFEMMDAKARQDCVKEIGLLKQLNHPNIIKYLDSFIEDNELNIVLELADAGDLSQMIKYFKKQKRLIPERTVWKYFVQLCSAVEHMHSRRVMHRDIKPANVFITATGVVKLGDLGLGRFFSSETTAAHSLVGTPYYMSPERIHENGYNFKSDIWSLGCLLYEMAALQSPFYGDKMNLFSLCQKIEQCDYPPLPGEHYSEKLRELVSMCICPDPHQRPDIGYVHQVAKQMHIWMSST

remaining activity at 0.3 µM (CDK9/CYCLIN K; [1]): 108%
remaining activity at 0.3 µM (CDK9/CYCLIN K; [2]): 105%
remaining activity at 0.3 µM (MLK3/MAP3K11; [1]): 89.5%
remaining activity at 0.3 µM (MLK3/MAP3K11; [2]): 89.3%
remaining activity at 0.3 µM (PKMYT1; [1]): 62.9%
remaining activity at 0.3 µM (PKMYT1; [2]): 62.8%
remaining activity at 0.3 µM (PKCtheta; [1]): 91.3%
remaining activity at 0.3 µM (PKCtheta; [2]): 90.3%
remaining activity at 0.3 µM (NEK6; [1]): 95.2%
remaining activity at 0.3 µM (NEK6; [2]): 91.5%
remaining activity at 0.3 µM (CDK9/cyclin T2; [1]): 89.2%
remaining activity at 0.3 µM (CDK9/cyclin T2; [2]): 88.6%
remaining activity at 0.3 µM (MARK2/PAR-1Ba; [1]): 93.2%
remaining activity at 0.3 µM (MARK2/PAR-1Ba; [2]): 92.1%
remaining activity at 0.3 µM (ERN1/IRE1; [1]): 83%
remaining activity at 0.3 µM (ERN1/IRE1; [2]): 82.7%
remaining activity at 0.3 µM (GRK6; [1]): 86.9%
remaining activity at 0.3 µM (GRK6; [2]): 83.9%
remaining activity at 0.3 µM (TSSK3/STK22C; [1]): 97.1%
remaining activity at 0.3 µM (TSSK3/STK22C; [2]): 94.6%
remaining activity at 0.3 µM (TLK2; [1]): 101%
remaining activity at 0.3 µM (TLK2; [2]): 100%
remaining activity at 0.3 µM (ERN2/IRE2; [1]): 52.8%
remaining activity at 0.3 µM (ERN2/IRE2; [2]): 51.5%
remaining activity at 0.3 µM (STK32C/YANK3; [1]): 90.2%
remaining activity at 0.3 µM (STK32C/YANK3; [2]): 83.2%
remaining activity at 0.3 µM (PAK4; [1]): 59.4%
remaining activity at 0.3 µM (PAK4; [2]): 54.7%
remaining activity at 0.3 µM (NEK2; [1]): 60.3%
remaining activity at 0.3 µM (NEK2; [2]): 55.8%
remaining activity at 0.3 µM (WEE1; [1]): 94.2%
remaining activity at 0.3 µM (WEE1; [2]): 93.6%
SMILES: COc1cc(N2CCN(C)CC2)c(C)cc1Nc1ncc(Br)c(Nc2cccnc2N(C)C)n1 [TP-5801]
